Values of other authors, collected in US10538548B2, “Material mixture containing rubusoside or alpha glycosylrubusoside, for enhancing sweet taste” (SYMRISE AG, priority 2014, dated 2020).

Details: pure rubusoside

C=C1C[C@@]23CC[C@H]4[C@@](C)(CCC[C@@]4(C)C(=O)O[C@@H]4O[C@H](CO)[C@@H](O)[C@H](O)[C@H]4O)[C@@H]2CC[C@]1(O[C@@H]1O[C@H](CO)[C@@H](O)[C@H](O)[C@H]1O)C3 [rubusoside, Rubusoside]
sweetening power relative to sugar: 200 times
